One may read the chromatographic logP as lipophilicity estimated from chromatographic retention. A lower chromatographic logP goes with lower lipophilicity. As usually defined, the IC50 is the concentration at which inhibition is half-maximal.

Molecules are shown by their SMILES.

This is an account of results in US7144894B2, “Sulfonamide bicyclic compounds” (Bristol-Myers Squibb Company, priority 2004, dated 2006).

Test system in the first series: not listed separately
The series can be described thus: HPLC log P. As to conditions: pH 7.0. In kind it is physicochemical.
Consider `CC(C)C[C@H](C(N)=O)N(Cc1ccc2[nH]ccc2c1)S(=O)(=O)c1ccc(Cl)cc1` [Example 2, 2R-(N-indol-5-ylmethyl-N-4-chlorophenylsulfonyl)amino-4-methyl-pentanamide], for which the chromatographic logP is 3.81.

`Cc1cc2cc(CN([C@H](CC(C)C)C(N)=O)S(=O)(=O)c3ccc(Cl)cc3)ccc2[nH]1` [Example 4, 2R-(N-(2-methylindol-5-ylmethyl)-N-4-chlorophenylsulfonyl)amino-4-methyl-pentanamide] displayed a chromatographic logP of 4.21.

The subject of a further series is β-amyloid peptide formation. In words: Inhibition of β-amyloid peptide formation in human H4 cells. In kind it is cell-based. As to conditions: H4 cells stably transfected to overexpress HPLAP-APP fusion protein; 18 hrs incubation; Aβ in supernatant; read-out: Binding affinity (IC50 in nM). As to the method: γ-Secretase inhibitors were also evaluated using in vitro assays based on the inhibition of Aβ formation in cultured cells. Cultured human cell lines, such as HEK293 and H4 cells, which express APP and γ-secretase activity or transfected derivative cell lines that overexpress wild-type APP, mutant APP, or APP fusion proteins will secrete Aβ peptides into the culture media that can be quantified as previously outlined (Dovey H. et al., J. Neurochem. 2001, 76, 173). The incubation of these cultured cells with γ-secretase inhibitors decreases the production of Aβ peptides. For instance, H4 cells stably transfected to overexpress the HPLAP-APP fusion protein described above were grown as above, detached, and adjusted to 2×10^5 cells/ml. 100 μl of the resulting suspension was then added to each well of a 96-well plate. After 4 hrs, the media was removed and replaced with 100 μl serum-free media containing various dilutions of the test compound. Plates were then incubated for 18 hrs at 37° C. and a 100 μl aliquot of the tissue culture supernatant was removed for determination of Aβ levels using time-resolved fluorescence of the homogenous sample as outlined above. The extent of Aβ inhibition was used to calculate the IC50 value for the test compound.
Representative compounds were evaluated in the above assay and were determined to inhibit Aβ formation.
For the compound `CC(C)C[C@H](C(N)=O)N(Cc1ccc2c(c1)CCN(CC1CC1)C2=O)S(=O)(=O)c1ccc(Cl)cc1` [Example 19, 2R-(N-(1-oxo-2-cyclopropylmethyl-1,2,3,4-tetrahydroisoquinolin-6-ylmethylamino)-N-4-chlorophenylsulfonyl)amino-4-methyl-pentanamide], the IC50 is 0.25 to 50 nM.

Regarding `CC(C)C[C@H](C(N)=O)N(Cc1ccc2c(c1)CCN(CC1CCC1)C2=O)S(=O)(=O)c1ccc(Cl)cc1` [Example 20, 2R-(N-(1-oxo-2-cyclobutylmethyl-1,2,3,4-tetrahydroisoquinolin-6-ylmethylamino)-N-4-chlorophenylsulfonyl)amino-4-methyl-pentanamide], the IC50 was 0.25 to 50 nM.

On to `CC(C)C[C@H](C(N)=O)N(Cc1ccc2c(c1)CCN(C)C2=O)S(=O)(=O)c1ccc(Cl)cc1` [Example 14, 2R-(N-(1-oxo-2-methyl-1,2,3,4-tetrahydroisoquinolin-6-ylmethylamino)-N-4-chlorophenylsulfonyl)amino-4-methyl-pentanamide], for which the IC50 is 0.25 to 50 nM.

On to `CCCCN1CCc2cc(CN([C@H](CC(C)C)C(N)=O)S(=O)(=O)c3ccc(Cl)cc3)ccc2C1=O` [Example 16, 2R-(N-(1-oxo-2-butyl-1,2,3,4-tetrahydroisoquinolin-6-ylmethylamino)-N-4-chlorophenylsulfonyl)amino-4-methyl-pentanamide], for which the IC50 lay within 0.25 to 50 nM.

Turning to `COCCN1CCc2cc(CN([C@H](CC(C)C)C(N)=O)S(=O)(=O)c3ccc(Cl)cc3)ccc2C1=O` [Example 18, 2R-(N-(1-oxo-2-(2-methoxyethyl)-1,2,3,4-tetrahydroisoquinolin-6-ylmethylamino)-N-4-chlorophenylsulonyl)amino-4-methyl-pentanamide], the IC50 fell in the range of 0.25 to 50 nM.

For the compound `CCC(CC)N1CCc2cc(CN([C@H](CC3CC3)C(N)=O)S(=O)(=O)c3ccc(Cl)cc3)ccc2C1=O` [Example 24, 2R-(N-(1-oxo-2-(3-pentyl)-1,2,3,4-tetrahydroisoquinolin-6-ylmethylamino)-N-4-chlorophenylsulfonyl)amino-3-cyclopropyl-propanamide], the IC50 fell in the range of 0.25 to 50 nM.

Take `CCCN1CCc2cc(CN([C@H](CC(C)C)C(N)=O)S(=O)(=O)c3ccc(Cl)cc3)ccc2C1=O` [Example 15, 2R-(N-(1-oxo-2-propyl-1,2,3,4-tetrahydroisoquinolin-6-ylmethylamino)-N-4-chlorophenylsulfonyl)amino-4-methyl-pentanamide]: the IC50 was in the range of 0.25 to 50 nM.

With `CC(C)C[C@H](C(N)=O)N(Cc1ccc2c(c1)CCN(Cc1ccccn1)C2=O)S(=O)(=O)c1ccc(Cl)cc1` [Example 13, 2R-(N-(1-oxo-2-(2-pyridylmethyl)-1,2,3,4-tetrahydroisoquinolin-6-ylmethylamino)-N-4-chlorophenylsulonyl)amino-4-methyl-pentanamide], the concentration for half-maximal inhibition (IC50) lay within 0.25 to 50 nM.

With `CC(C)C[C@H](C(N)=O)N(Cc1ccc2c(c1)CCN(Cc1ccccc1)C2=O)S(=O)(=O)c1ccc(Cl)cc1` [Example 17, 2R-(N-(1-oxo-2-benzyl-1,2,3,4-tetrahydroisoquinolin-6-ylmethylamino)-N-4-chlorophenylsulfonyl)amino-4-methyl-pentanamide], the IC50 was 0.25 to 50 nM.

On to `CC(C)N1CCc2cc(CN([C@H](CC3CC3)C(N)=O)S(=O)(=O)c3ccc(Cl)cc3)ccc2C1=O` [Example 23, 2R-(N-(1-oxo-2-(2-propyl)-1,2,3,4-tetrahydroisoquinolin-6-ylmethylamino)-N-4-chlorophenylsulfonyl)amino-3-cyclopropyl-propanamide], for which the IC50 was in the range of 0.25 to 50 nM.

Still in this series, the particulars now being: Homo sapiens; H4 cells stably transfected to overexpress HPLAP-APP fusion protein; 18 hrs incubation; Aβ in supernatant; read-out: Binding affinity (IC50 in nM).
`CC(C)C[C@H](C(N)=O)N(Cc1ccc2c(c1)CCN2)S(=O)(=O)c1ccc(Cl)cc1` [Example 9, 2R-(N-indolin-5-yl-N-4-chlorophenylsulfonyl)methylamino-4-methyl-pentanamide]: the IC50 fell in the range of 0.25 to 50 nM.

Consider `CC(C)C[C@H](C(N)=O)N(Cc1ccc2c(c1)CCNC2=O)S(=O)(=O)c1ccc(Cl)cc1` [Example 5, 2R-(N-(1-oxo-1,2,3,4-tetrahydroisoquinolin-6-ylmethyl)-N-4-chlorophenylsulfonyl)amino-4-methyl-pentanamide], for which the IC50 fell in the range of 0.25 to 50 nM.

`CCN1CCc2cc(CN([C@H](CC(C)C)C(N)=O)S(=O)(=O)c3ccc(Cl)cc3)ccc2C1=O` [Example 6, 2R-(N-(1-oxo-2-ethyl-1,2,3,4-tetrahydroisoquinolin-6-ylmethylamino)-N-4-chlorophenylsulfonyl)amino-4-methyl-pentanamide]: the IC50 fell in the range of 0.25 to 50 nM.

In the case of `CC(C)C[C@H](C(N)=O)N(Cc1ccc2c(c1)CCN2C)S(=O)(=O)c1ccc(Cl)cc1` [Example 10, 2R-(N-1-methylindolin-5-yl-N-4-chlorophenylsulfonyl)methylamino-4-methyl-pentanamide], the 50% inhibitory concentration (IC50) fell in the range of 0.25 to 50 nM.

In the case of `CC(C)C[C@H](C(N)=O)N(Cc1ccc2[nH]ccc2c1)S(=O)(=O)c1ccc(Cl)cc1` [Example 2, 2R-(N-indol-5-ylmethyl-N-4-chlorophenylsulfonyl)amino-4-methyl-pentanamide], the IC50 lay in the range of 0.25 to 50 nM.

Regarding `CC(C)C[C@H](C(N)=O)N(Cc1ccc2c(c1)CCC(=O)N2)S(=O)(=O)c1ccc(Cl)cc1` [Example 7, 2R-(N-(2-oxo-1,2,3,4-tetrahydroquinolin-6-ylmethyl)-N-4-chlorophenylsulfonyl)amino-4-methyl-pentanamide], the IC50 fell in the range of 50 to 500 nM.

For `CCN1CCc2cc(CN([C@H](CC3CC3)C(N)=O)S(=O)(=O)c3ccc(Cl)cc3)ccc2C1=O` [Example 21, 2R-(N-(1-oxo-2-ethyl-1,2,3,4-tetrahydroisoquinolin-6-ylmethylamino)-N-4-chlorophenylsulfonyl)amino-3-cyclopropyl-propanamide], the IC50 was in the range of 0.25 to 50 nM.

Turning to `Cc1cc2cc(CN([C@H](CC(C)C)C(N)=O)S(=O)(=O)c3ccc(Cl)cc3)ccc2n1C(=O)OC(C)(C)C` [Example 3, 2R-(N-(1-t-Butyloxycarbonyl-2-methylindol-5-ylmethyl)-N-4-chlorophenylsulfonyl)amino-4-methyl-pentanamide], the IC50 lay in the range of 0.25 to 50 nM.

Regarding `Cc1cc2cc(CN([C@H](CC(C)C)C(N)=O)S(=O)(=O)c3ccc(Cl)cc3)ccc2[nH]1` [Example 4, 2R-(N-(2-methylindol-5-ylmethyl)-N-4-chlorophenylsulfonyl)amino-4-methyl-pentanamide], the concentration for half-maximal inhibition (IC50) was in the range of 0.25 to 50 nM.

For the compound `CC(C)C[C@H](C(N)=O)N(Cc1ccc2c(c1)CCN2C(=O)C1CCCC1)S(=O)(=O)c1ccc(Cl)cc1` [Example 12, 2R-(N-1-cyclopentylcarbonylindolin-5-yl-N-4-chlorophenylsulfonyl)methylamino-4-methyl-pentanamide], the IC50 fell in the range of 0.25 to 50 nM.

`CCN1CCc2cc(CN([C@H](CC(F)F)C(N)=O)S(=O)(=O)c3ccc(Cl)cc3)ccc2C1=O` [Example 22, 2R-(N-(1-oxo-2-ethyl-1,2,3,4-tetrahydroisoquinolin-6-ylmethylamino)-N-4-chlorophenylsulfonyl)amino-4,4-difluorobutanamide]: the IC50 lay within 0.25 to 50 nM.
